*1 amine or outer side, *2 acyl side, *3 side chain or, on linkers, in order; H or OH if unused. Where a SMILES comes first, the peptide text is derived from it. Bridges are numbered along the chain shown (N, C = ends). [ ]: non-standard residue; d: D form. The star is where a group is joined. Phe(3-CONHMe,4-OMe) = CNC(=O)c1cc(C[C@H](N)C(=O)O)ccc1OC; Phe(3-OMe,4-CONHMe) = CNC(=O)c1ccc(C[C@H](N)C(=O)O)cc1OC; NMePhe(3-Cl) = CN[C@@H](Cc1cccc(Cl)c1)C(=O)O; NMehPhe = CN[C@@H](CCc1ccccc1)C(=O)O; NMeF = CN[C@@H](Cc1ccccc1)C(=O)O; NMeGABA = CN(CCCC(=O)[*:2])[*:1]; NMeI = CC[C@H](C)[C@H](NC)C(=O)O; Butyl(3-Me,3-OH) = CC(C)(O)CC*; NMeL = CN[C@@H](CC(C)C)C(=O)O; NMeV = CN[C@H](C(=O)O)C(C)C; NMeAbu = CC[C@H](NC)C(=O)O; NMeA = CN[C@@H](C)C(=O)O; Piperidide = C1CCN(*)CC1; NBuGly = CCCCNCC(=O)O; Isopentyl = CC(C)CC*; NPrGly = CCCNCC(=O)O; Sar = CNCC(=O)O; tBu = CC(C)(C)*
Assay: in vitro
Settings: human, Caco-2, Caco-2 (cm/sec)

| Compound | Papp |
| --- | --- |
| CC[C@H](C)[C@@H]1NC(=O)[C@H](CC(C)C)N(C)C(=O)CN(C)C(=O)C[C@@H](C(=O)N2CCCCC2)NC(=O)[C@H](CC(C)C)N(C)C(=O)[C@H](Cc2ccc(C(=O)NC)c(OC)c2)NC(=O)[C@H](CC(C)C)N(C)C(=O)[C@H](Cc2cccc(Cl)c2)N(C)C(=O)CN(C)C(=O)[C@H]([C@@H](C)O)NC(=O)[C@H](CC(C)C)N(C)C1=O [AP34] ([Sar][NMeL]I[NMeL]T[Sar][NMePhe(3-Cl)][NMeL][Phe(3-OMe,4-CONHMe)][NMeL]D-Piperidide; lactam N-11) | 0.2 ×10⁻⁶ cm/s |
| CCCCN1CC(=O)N(C)[C@@H](CC(C)C)C(=O)N[C@@H](COC(C)(C)C)C(=O)N(C)[C@@H](Cc2ccccc2)C(=O)N(C)[C@@H](CC(C)C)C(=O)N[C@H](C(=O)N2CCCCC2)CC(=O)N[C@H](C(C)C)C(=O)N(C)[C@@H](C(C)C)C(=O)N[C@@H](Cc2ccc(OC)c(C(=O)NC)c2)C(=O)N(C)[C@@H](CC(C)C)C(=O)N[C@@H]([C@@H](C)O)C1=O [AP35] ([dV][NMeV][Phe(3-CONHMe,4-OMe)][NMeL]T[NBuGly][NMeL]S(tBu)[NMeF][NMeL]D-Piperidide; lactam N-11) | 2 ×10⁻⁶ cm/s |
| CCCCN1CC(=O)N(C)[C@@H](CC(C)C)C(=O)N[C@@H](Cc2ccc(OC)c(C(=O)NC)c2)C(=O)N(C)[C@@H](CC(C)C)C(=O)N(C)[C@@H](CC(C)C)C(=O)N[C@H](C(=O)N2CCCCC2)CC(=O)N[C@H](CC(C)C)C(=O)N(C)[C@@H](Cc2ccccc2)C(=O)N[C@@H](C(C)C)C(=O)N(C)[C@@H](CC(C)C)C(=O)N[C@@H]([C@@H](C)O)C1=O [AP36] ([dL][NMeF]V[NMeL]T[NBuGly][NMeL][Phe(3-CONHMe,4-OMe)][NMeL][NMeL]D-Piperidide; lactam N-11) | 0.26 ×10⁻⁶ cm/s |
| CCCCN1CC(=O)N(C)[C@@H](CC(C)C)C(=O)N[C@@H](COC(C)(C)C)C(=O)N(C)[C@@H]([C@@H](C)CC)C(=O)N(C)[C@@H](CC(C)C)C(=O)N[C@H](C(=O)N2CCCCC2)CC(=O)N[C@H](C)C(=O)N(C)[C@@H](Cc2ccccc2)C(=O)N[C@@H](Cc2ccc(OC)c(C(=O)NC)c2)C(=O)N(C)[C@@H](CC(C)C)C(=O)N[C@@H]([C@@H](C)O)C1=O [AP37] ([dA][NMeF][Phe(3-CONHMe,4-OMe)][NMeL]T[NBuGly][NMeL]S(tBu)[NMeI][NMeL]D-Piperidide; lactam N-11) | 0.4 ×10⁻⁶ cm/s |
| CC[C@H](C)[C@@H]1NC(=O)[C@H](CC(C)C)N(C)C(=O)CCCN(C)C(=O)C[C@@H](C(=O)N2CCCCC2)NC(=O)[C@H](CC(C)C)N(C)C(=O)[C@H](CC(C)C)N(C)C(=O)[C@H]([C@@H](C)O)NC(=O)[C@H](CC(C)C)N(C)C(=O)[C@H](Cc2ccc(OC)c(C(=O)NC)c2)NC(=O)[C@H](CC(C)C)N(C)C(=O)[C@H](Cc2ccccc2)N(C)C1=O [AP38] ([NMeGABA][NMeL]I[NMeF][NMeL][Phe(3-CONHMe,4-OMe)][NMeL]T[NMeL][NMeL]D-Piperidide; lactam N-11) | 0.2 ×10⁻⁶ cm/s |
| CC[C@H](C)[C@H]1C(=O)N[C@@H]([C@@H](C)O)C(=O)N(C)CC(=O)N(C)[C@@H](CC)C(=O)N[C@H](C(=O)N2CCCCC2)CC(=O)N(C)[C@@H](CC(C)C)C(=O)N[C@@H](Cc2ccc(OC)c(C(=O)NC)c2)C(=O)N(C)[C@@H](CC(C)C)C(=O)N(C)[C@@H](Cc2ccccc2)C(=O)N[C@@H](CC(C)C)C(=O)N(C)[C@@H](CC(C)C)C(=O)N1C [AP39] ([NMeL][Phe(3-CONHMe,4-OMe)][NMeL][NMeF]L[NMeL][NMeI]T[Sar][NMeAbu]D-Piperidide; lactam N-11) | 0.01 ×10⁻⁶ cm/s |
| CNC(=O)c1cc(C[C@@H]2NC(=O)[C@H](CC(C)C)N(C)C(=O)[C@H](CC(C)C)N(C)C(=O)[C@H](CC(C)C)NC(=O)[C@H](CC(C)C)N(C)C(=O)C[C@@H](C(=O)N3CCCCC3)NC(=O)[C@H](CC(C)C)N(C)C(=O)CN(C)C(=O)[C@H]([C@@H](C)O)NC(=O)[C@H](C(C)C)N(C)C(=O)[C@H](CC(C)C)N(C)C2=O)ccc1OC [AP40] ([NMeL]L[NMeL][NMeL][Phe(3-CONHMe,4-OMe)][NMeL][NMeV]T[Sar][NMeL]D-Piperidide; lactam N-11) | 0.63 ×10⁻⁶ cm/s |
| CCCCN1CC(=O)N(C)[C@@H](CC(C)C)C(=O)N(C)[C@@H](CC(C)C)C(=O)N[C@@H](COC(C)(C)C)C(=O)N(C)[C@@H](CC(C)C)C(=O)N[C@H](C(=O)N2CCCCC2)CC(=O)N(C)CC(=O)N(C)[C@@H](Cc2cccc(Cl)c2)C(=O)N[C@@H](Cc2ccc(OC)c(C(=O)NC)c2)C(=O)N(C)[C@@H](CC(C)C)C(=O)N[C@@H]([C@@H](C)O)C1=O [AP41] ([Sar][NMePhe(3-Cl)][Phe(3-CONHMe,4-OMe)][NMeL]T[NBuGly][NMeL][NMeL]S(tBu)[NMeL]D-Piperidide; lactam N-11) | 0.45 ×10⁻⁶ cm/s |
| CC[C@H](C)[C@@H]1NC(=O)[C@H](CC(C)C)N(C)C(=O)CN(C)C(=O)C[C@@H](C(=O)N2CCCCC2)NC(=O)[C@H](CC(C)C)N(C)C(=O)[C@H](Cc2ccc(OC)c(C(=O)NC)c2)NC(=O)[C@H](CC(C)C)N(C)C(=O)[C@H](Cc2cccc(Cl)c2)N(C)C(=O)CN(C)C(=O)[C@H]([C@@H](C)O)NC(=O)[C@H](CC(C)C)N(C)C1=O [AP42] ([Sar][NMeL]I[NMeL]T[Sar][NMePhe(3-Cl)][NMeL][Phe(3-CONHMe,4-OMe)][NMeL]D-Piperidide; lactam N-11) | 0.25 ×10⁻⁶ cm/s |
| CC(C)CCOC[C@@H]1NC(=O)[C@H](CC(C)C)N(C)C(=O)CN(C)C(=O)[C@H]([C@@H](C)O)NC(=O)[C@H](CC(C)C)N(C)C(=O)[C@H](COCCC(C)(C)O)NC(=O)[C@H](Cc2ccccc2)N(C)C(=O)[C@@H](C(C)C)NC(=O)C[C@@H](C(=O)N2CCCCC2)NC(=O)[C@H](CC(C)C)N(C)C(=O)[C@H](Cc2ccccc2)N(C)C1=O [AP51] ([dV][NMeF]S(Butyl(3-Me,3-OH))[NMeL]T[Sar][NMeL]S(Isopentyl)[NMeF][NMeL]D-Piperidide; lactam N-11) | 1.4 ×10⁻⁶ cm/s |
| CC(C)C[C@@H]1NC(=O)[C@H](Cc2ccccc2)N(C)C(=O)[C@@H](C(C)C)NC(=O)C[C@@H](C(=O)N2CCCCC2)NC(=O)[C@H](CC(C)C)N(C)C(=O)[C@H](Cc2cccc(Cl)c2)N(C)C(=O)[C@H](COCCC(C)(C)O)NC(=O)[C@H](CC(C)C)N(C)C(=O)CN(C)C(=O)[C@H]([C@@H](C)O)NC(=O)[C@H](C(C)C)N(C)C1=O [AP52] ([dV][NMeF]L[NMeV]T[Sar][NMeL]S(Butyl(3-Me,3-OH))[NMePhe(3-Cl)][NMeL]D-Piperidide; lactam N-11) | 1.7 ×10⁻⁶ cm/s |
| CC(C)CCOC[C@@H]1NC(=O)[C@H](Cc2ccccc2)N(C)C(=O)[C@H](Cc2ccccc2)N(C)C(=O)[C@H](COCCC(C)(C)O)NC(=O)[C@H](CC(C)C)N(C)C(=O)CCCN(C)C(=O)C[C@@H](C(=O)N2CCCCC2)NC(=O)[C@H](CC(C)C)N(C)C(=O)[C@H](CC(C)C)N(C)C(=O)[C@H]([C@@H](C)O)NC(=O)[C@H](C(C)C)N(C)C1=O [AP53] ([NMeGABA][NMeL]S(Butyl(3-Me,3-OH))[NMeF][NMeF]S(Isopentyl)[NMeV]T[NMeL][NMeL]D-Piperidide; lactam N-11) | 0.74 ×10⁻⁶ cm/s |
| CC[C@H](C)[C@@H]1NC(=O)[C@H](C(C)C)N(C)C(=O)CCCN(C)C(=O)C[C@@H](C(=O)N2CCCCC2)NC(=O)[C@H](CC(C)C)N(C)C(=O)[C@H](CC(C)C)N(C)C(=O)[C@H]([C@@H](C)O)NC(=O)[C@H](CC(C)C)N(C)C(=O)[C@H](COCCC(C)(C)O)NC(=O)[C@H](Cc2cccc(Cl)c2)N(C)C(=O)[C@H](Cc2ccccc2)N(C)C1=O [AP54] ([NMeGABA][NMeV]I[NMeF][NMePhe(3-Cl)]S(Butyl(3-Me,3-OH))[NMeL]T[NMeL][NMeL]D-Piperidide; lactam N-11) | 1.4 ×10⁻⁶ cm/s |
| CC(C)C[C@@H]1NC(=O)[C@H](Cc2ccccc2)N(C)C(=O)[C@H](CC(C)C)N(C)C(=O)[C@H](COCCC(C)(C)O)NC(=O)[C@H](C)N(C)C(=O)C[C@@H](C(=O)N2CCCCC2)NC(=O)[C@H](CC(C)C)N(C)C(=O)CN(C)C(=O)[C@H]([C@@H](C)O)NC(=O)[C@H](CC(C)C)N(C)C(=O)[C@H](CCc2ccccc2)N(C)C1=O [AP55] ([NMeA]S(Butyl(3-Me,3-OH))[NMeL][NMeF]L[NMehPhe][NMeL]T[Sar][NMeL]D-Piperidide; lactam N-11) | 1.3 ×10⁻⁶ cm/s |
| CC(C)C[C@@H]1NC(=O)[C@H](C)N(C)C(=O)C[C@@H](C(=O)N2CCCCC2)NC(=O)[C@H](CC(C)C)N(C)C(=O)CN(C)C(=O)[C@H]([C@@H](C)O)NC(=O)[C@H](CC(C)C)N(C)C(=O)[C@H](CCc2ccccc2)N(C)C(=O)[C@H](COCCC(C)(C)O)NC(=O)[C@H](Cc2ccccc2)N(C)C(=O)[C@H](CC(C)C)N(C)C1=O [AP56] ([NMeA]L[NMeL][NMeF]S(Butyl(3-Me,3-OH))[NMehPhe][NMeL]T[Sar][NMeL]D-Piperidide; lactam N-11) | 1.3 ×10⁻⁶ cm/s |
| CC(C)C[C@H]1C(=O)N[C@@H]([C@@H](C)O)C(=O)N(C)CC(=O)N(C)[C@@H](Cc2cccc(Cl)c2)C(=O)N(C)[C@@H](CC(C)C)C(=O)N[C@@H](COC(C)(C)C)C(=O)N(C)[C@@H](CC(C)C)C(=O)N[C@H](C(=O)N2CCCCC2)CC(=O)N(C)CC(=O)N(C)[C@@H](CCc2ccccc2)C(=O)N[C@@H](COCCC(C)(C)O)C(=O)N1C [AP57] ([Sar][NMehPhe]S(Butyl(3-Me,3-OH))[NMeL]T[Sar][NMePhe(3-Cl)][NMeL]S(tBu)[NMeL]D-Piperidide; lactam N-11) | 0.83 ×10⁻⁶ cm/s |
| CC[C@H](C)[C@@H]1NC(=O)[C@H](Cc2ccccc2)N(C)C(=O)CN(C)C(=O)C[C@@H](C(=O)N2CCCCC2)NC(=O)[C@H](CC(C)C)N(C)C(=O)[C@H](COCCC(C)(C)O)NC(=O)[C@H](CC(C)C)N(C)C(=O)[C@H](CCc2ccccc2)N(C)C(=O)CN(C)C(=O)[C@H]([C@@H](C)O)NC(=O)[C@H](CC(C)C)N(C)C1=O [AP58] ([Sar][NMeF]I[NMeL]T[Sar][NMehPhe][NMeL]S(Butyl(3-Me,3-OH))[NMeL]D-Piperidide; lactam N-11) | 0.49 ×10⁻⁶ cm/s |
| CCCN1CC(=O)N(C)[C@@H](Cc2ccccc2)C(=O)N[C@@H]([C@@H](C)CC)C(=O)N(C)[C@@H](CC(C)C)C(=O)N[C@@H]([C@@H](C)O)C(=O)N(C)CC(=O)N(C)[C@@H](Cc2ccccc2)C(=O)N(C)[C@@H](CC(C)C)C(=O)N[C@@H](COCCC(C)(C)O)C(=O)N(C)[C@@H](CC(C)C)C(=O)N[C@H](C(=O)N2CCCCC2)CC1=O [AP59] ([NPrGly][NMeF]I[NMeL]T[Sar][NMeF][NMeL]S(Butyl(3-Me,3-OH))[NMeL]D-Piperidide; lactam N-11) | 0.78 ×10⁻⁶ cm/s |

From patent US20230096766A1, “AMINO ACID HAVING FUNCTIONAL GROUP CAPABLE OF INTERMOLECULAR HYDROGEN BONDING, PEPTIDE COMPOUND CONTAINING SAME AND METHOD FOR PRODUCTION THEREOF” (Chugai Seiyaku Kabushiki Kaisha, priority 2018, published 2023)
